Literature values, collected in patent publication US20150272935A1, “Use of a Factor Xa Inhibitor for Treating and Preventing Bleeding Events And Related Disorders in Patients Having Sensitivity to Vitamin K Antagonists Used As Anticoagulants” (priority 2014, published 2015).
Read-outs that look alike come from different tables or passages of the source.

Assays:
[1] = rats
[2] = monkeys
CYP2C9*2 = CYP2C9*2 (Homo sapiens, UniProt P11712, R144C); details: CYP2C9*2 versus CYP2C9*1
CYP2C9*3 = CYP2C9*3 (Homo sapiens, UniProt P11712, I359L); details: CYP2C9*3 versus CYP2C9*1

SMILES	oral bioavailability [1]	oral bioavailability [2]	safety and tolerability (doses of up to 90 mg per day)	oral bioavailability (human subjects)	reduction of warfarin metabolism (CYP2C9*2)	reduction of warfarin metabolism (CYP2C9*3)
CN1CCc2nc(C(=O)N[C@@H]3C[C@@H](C(=O)N(C)C)CC[C@@H]3NC(=O)C(=O)Nc3ccc(Cl)cn3)sc2C1.Cc1ccc(S(=O)(=O)O)cc1 [Edoxaban]	orally bioavailable	orally bioavailable	generally safe and well tolerated	orally bioavailable		
CC(=O)CC(c1ccccc1)c1c(O)c2ccccc2oc1=O (stereo not drawn) [Warfarin]					about 30%	about 90%
